Test results reported in article PMC11393688, “Design and synthesis of new 1,2,4-oxadiazole/quinazoline-4-one hybrids with antiproliferative activity as multitargeted inhibitors” (Frontiers in Chemistry, 2024).
Values belong to the compound of their own block, whether it stands above or below them.

Tests used:
[1] = Cell viability, MTT test on normal cell line; type: cell-based; conditions: human, MCF-10A mammary gland epithelial cells (normal cell line), MCF-10A normal cells, 4 days incubation
Description: The human mammary gland epithelial (MCF-10A) normal cell line was used to test the viability of novel compounds 9a-o ([Mahmoud et al., 2022]; [Mekheimer et al., 2022]). After 4 days of incubation on MCF-10A cells, the cell viability of compounds 9a-o was determined using the MTT test.
The human mammary gland epithelial (MCF-10A) normal cell line was used to test the viability of compounds 9a-o ([Mahmoud et al., 2022]; [Mekheimer et al., 2022]). Refer to Supplementary Appendix A (Supplementary Material) for more details.
4.2. Biological evaluation
4.2.1. Cytotoxic activity using MTT Assay and evaluation of IC50
MTT assay was carried out to study the effect of compounds on mammary epithelial cells (MCF-10A). The medium in which cells were propagated contained Dulbecco's modified Eagle's medium (DMEM)/ Ham's F-12 medium (1:1) supplemented with epidermal growth factor (20 ng/mL), hydrocortisone (500 ng/mL), insulin (10 μg/mL), 2 mM glutamine and 10% foetal calf serum.
After every 2-3 days, the cells were passaged using trypsin ethylenediamine tetra acetic acid (EDTA). The cells were seeded at a density of 10^4 cells mL-1 in flat-bottomed culture plates containing 96 wells each. After 24 h, medium was removed from the plates and the compounds in (in 0.1% DMSO) were added (in 200 μL medium to yield a final concentration of 0.1% v/v) to the wells of plates. A single compound was designated with four wells followed by incubation of plates for 96h at 37°C. After incubation, medium was removed completely from the plates followed by addition of MTT (0.4 mg/mL in medium) to each well and subsequent incubation of plates for 3h. MTT (along with the medium) was removed and DMSO (150μL) was added to each well of the culture plates, followed by vertexing and subsequent measurement of absorbance (at 540 nm) using microplate reader. The data are shown as percentage inhibition of proliferation in comparison with controls containing 0.1% DMSO.

[2] = test system: lung cancer (A-549) cell line; assay: Antiproliferative MTT assay, A-549; type: cell-based; conditions: Homo sapiens, A549, A-549 lung cancer cells, read-out: Antiproliferative activity IC50 ± SEM A-549
Description: (§1) 4.2.1.2. Assay for antiproliferative effect
(§2) To explore the antiproliferative potential of compounds MTT assay was performed according to previously reported procedure using different cell lines to explore the antiproliferative potential of […]
(§3) calculate the total nuclear DNA, a fluorescent dye (propidium iodide, PI) is used which can attach to the DNA, thus offering a quick and precise technique. PI cannot pass through the cell membrane and its signal intensity can be considered as directly proportional to quantity of cellular DNA.
(§4) Cells whose cell membranes are damaged or have changed permeability are counted as dead ones.
(§5) The assay was performed by seeding the cells of different cell lines at a density of 3000-7500 cells/well (in 200µl medium) in culture plates followed by incubation for 24h at 37 °C in humidified 5% CO2/95% air atmospheric conditions. The medium was removed; the compounds were added to the plates at 10 µM concentrations (in 0.1% DMSO) in triplicates, followed by incubation for 48 h. DMSO (0.1%) was used as control. After incubation, medium was removed […]
(§6) 80 °C, the plates were allowed to freeze for 24 h, followed by thawing at 25 °C. […]
(§7) (Polar-Star BMG Tech) was used to record the readings at excitation and emission wavelengths of 530 and 620 nm for each well. The percentage cytotoxicity of compounds was calculated using […]
(§8) Where ATC= Absorbance of treated cells and AC= Absorbance of control. Erlotinib was used as positive control in the assay.

[3] = test system: breast cancer (MCF-7) cell line; assay: Antiproliferative MTT assay, MCF-7; type: cell-based; conditions: Homo sapiens, MCF7, MCF-7 breast cancer cells, read-out: Antiproliferative activity IC50 ± SEM MCF-7
Description: as §1, §2, §3, §4, §5, §6, §7, §8

[4] = test system: pancreatic cancer (Panc-1) cell line; assay: Antiproliferative MTT assay, Panc-1; type: cell-based; conditions: Homo sapiens, Panc-1 pancreatic cancer cells, read-out: Antiproliferative activity IC50 ± SEM Panc-1
Description: as §1, §2, §3, §4, §5, §6, §7, §8

[5] = test system: four human cancer cell lines (HT-29, Panc-1, A-549, MCF-7); assay: Average antiproliferative activity (GI50) over four cancer cell lines; type: cell-based; conditions: average IC50 against the four cancer cell lines
Description: as §1, §2, §3, §4, §5, §6, §7, §8

[6] = test system: colon cancer (HT-29) cell line; assay: Antiproliferative MTT assay, HT-29; type: cell-based; conditions: Homo sapiens, HT-29 colon cancer cells, read-out: Antiproliferative activity IC50 ± SEM HT-29
[7] = target: T1, EGFR (Homo sapiens, UniProt P00533); assay: EGFR-TK inhibitory assay; type: biochemical; conditions: read-out: EGFR inhibition IC50 ± SEM
T1 construct: amino acids 645–1186; His6 (N); made in house; host or cells: Sf-9 insect cells (baculovirus; pBlueBacHis2B / pFASTBacHTc)
T1 sequence (P00533 669-1210): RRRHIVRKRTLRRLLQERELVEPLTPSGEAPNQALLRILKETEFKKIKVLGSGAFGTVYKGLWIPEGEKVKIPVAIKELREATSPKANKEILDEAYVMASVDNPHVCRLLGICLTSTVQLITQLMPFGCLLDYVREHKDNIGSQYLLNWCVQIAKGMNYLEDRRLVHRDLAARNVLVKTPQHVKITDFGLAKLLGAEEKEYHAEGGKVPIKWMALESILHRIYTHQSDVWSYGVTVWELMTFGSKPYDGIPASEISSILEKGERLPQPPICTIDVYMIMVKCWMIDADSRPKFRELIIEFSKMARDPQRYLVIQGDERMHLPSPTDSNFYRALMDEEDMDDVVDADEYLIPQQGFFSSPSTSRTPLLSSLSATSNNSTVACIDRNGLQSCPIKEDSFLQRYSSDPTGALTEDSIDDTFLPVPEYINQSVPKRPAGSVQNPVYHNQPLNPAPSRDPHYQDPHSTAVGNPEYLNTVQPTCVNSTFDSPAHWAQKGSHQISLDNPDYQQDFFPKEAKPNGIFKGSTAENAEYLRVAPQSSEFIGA
Description: 4.2.1.3. EGFR inhibitory assay
Sf-9 cells were infected for 72h for protein expression. […]
centrifugation for 20 min.
Histidine-linked proteins were first eluted with 250 and then […]
using wash buffer. Europium-tagged antiphosphotyrosine antibody (75 µL, 400 ng) was added to each well followed by incubation of 1h and then washing of the plates using buffer. The enhancement solution was added to each well and the signal was recorded at excitation and […]
The autophosphorylation percentage inhibition by compounds was calculated using the following equation: […]
(1 picture or pasted object on this page, not shown here)

[8] = target: T2, BRAF^V600E (Homo sapiens, UniProt P15056, V600E); assay: BRAF^V600E kinase inhibitory assay; type: biochemical, Mouse; conditions: read-out: BRAF^V600E inhibition IC50 ± SEM
T2 construct: Mouse full-length GST-tagged BRAFV600E; GST; purchased Invitrogen PV3849
T2 sequence (P15056 2-766 V600E limits assumed): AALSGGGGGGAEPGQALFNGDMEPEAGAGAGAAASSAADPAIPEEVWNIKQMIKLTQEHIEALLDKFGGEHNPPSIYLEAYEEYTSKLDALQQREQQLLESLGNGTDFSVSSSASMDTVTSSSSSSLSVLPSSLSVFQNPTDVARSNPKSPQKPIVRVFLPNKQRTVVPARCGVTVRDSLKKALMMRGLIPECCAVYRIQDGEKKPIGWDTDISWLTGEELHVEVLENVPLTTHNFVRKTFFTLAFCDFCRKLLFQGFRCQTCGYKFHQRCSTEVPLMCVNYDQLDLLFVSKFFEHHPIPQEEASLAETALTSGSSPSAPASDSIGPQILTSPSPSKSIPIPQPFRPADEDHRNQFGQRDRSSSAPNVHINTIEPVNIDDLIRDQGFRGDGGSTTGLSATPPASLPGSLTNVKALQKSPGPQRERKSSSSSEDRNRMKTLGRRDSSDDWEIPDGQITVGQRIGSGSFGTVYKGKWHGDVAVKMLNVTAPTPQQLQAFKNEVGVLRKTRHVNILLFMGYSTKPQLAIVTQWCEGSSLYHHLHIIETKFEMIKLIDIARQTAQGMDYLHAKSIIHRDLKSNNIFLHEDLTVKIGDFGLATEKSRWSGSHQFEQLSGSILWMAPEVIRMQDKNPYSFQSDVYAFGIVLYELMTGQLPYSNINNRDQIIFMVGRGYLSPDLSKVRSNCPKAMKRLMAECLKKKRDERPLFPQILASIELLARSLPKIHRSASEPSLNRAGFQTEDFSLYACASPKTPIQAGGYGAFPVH
Description: Refer to Supplementary Appendix A for more details. […]
4.2.1.4. BRAF kinase assay […]
against BRAF. Mouse full-length GST-tagged BRAFV600E (7.5 ng, Invitrogen, PV3849) was pre-incubated with drug (1 µL) and assay dilution buffer (4 µL) for 60 min at 25 °C. In assay dilution buffer, a solution (5 µL) containing MgCl2 (30 mM), ATP (200 µM), recombinant human full length (200 ng) […] N-terminal His-tagged MEK1 (Invitrogen) was added to start the assay, subsequent to incubation for 25 min at 25 °C. The assay was stopped using 5X protein denaturing buffer (LDS) solution (5 µL). To further denature the protein, heat (70° C) was applied for 5 min.
10 µL of each reaction was loaded into the precast plates and electrophoresis was allowed to proceed. After completion of electrophoresis, the front part of the precast gel plate (holding hot ATP) was cut and afterwards cast-off. The dried gel was developed using a phosphor screen. A […]
served as positive control. […]
(FITC) and propidium iodide (PI) staining kit (BD Pharmingen, San Diego, USA). […]
4.3. Statistical analysis
Computerized Prism 5 program was used to statistically analyzed data using one-way ANOVA test followed by Tukey’s as post ANOVA for multiple comparison at P ≤.05. Data were presented

IC50 [2]: 36 ± 3 nM | IC50 [3]: 40 ± 4 nM | IC50 [4]: 38 ± 3 nM | GI50 [5]: 38 nM | IC50 [7]: 91 ± 7 nM | IC50 [8]: 70 ± 5 nM | melting point: 134 to 136 °C | IC50 [6]: 37 ± 3 nM
SMILES: CCn1c(SCc2nc(-c3ccc(OC)cc3)no2)nc2ccccc2c1=O [Compound 9l, 2-((3-(4-Methoxyphenyl)-1,2,4-oxadiazol-5-yl)methylthio)-3-ethylquinazolin-4(3H)-one]
viability at 96 h, 50 µM [1]: 90%

IC50 [2]: 62 ± 6 nM | IC50 [3]: 65 ± 6 nM | IC50 [4]: 64 ± 6 nM | GI50 [5]: 63 nM | melting point: 110 to 112 °C | IC50 [6]: 62 ± 6 nM
SMILES: C=CCn1c(SCc2nc(-c3ccccc3)no2)nc2ccccc2c1=O [Compound 9m, 2-((3-Phenyl-1,2,4-oxadiazol-5-yl)methylthio)-3-allylquinazolin-4(3H)-one]
viability at 96 h, 50 µM [1]: 92%

IC50 [2]: 56 ± 4 nM | IC50 [3]: 59 ± 5 nM | IC50 [4]: 57 ± 5 nM | GI50 [5]: 57 nM | melting point: 122 to 124 °C | IC50 [6]: 57 ± 5 nM
SMILES: C=CCn1c(SCc2nc(-c3ccc(OC)cc3)no2)nc2ccccc2c1=O [Compound 9o, 2-((3-(4-Methoxyphenyl)-1,2,4-oxadiazol-5-yl)methylthio)-3-allylquinazolin 4(3H)-one]
viability at 96 h, 50 µM [1]: 89%

More lines, now with the values behind:

SMILES: CCn1c(SCc2nc(-c3ccccc3)no2)nc2ccccc2c1=O [Compound 9j, 2-((3-Phenyl-1,2,4-oxadiazol-5-yl)methylthio)-3-ethylquinazolin-4(3H)-one]
viability at 96 h, 50 µM [1]: 90% | IC50 [2]: 69 ± 6 nM | IC50 [3]: 76 ± 7 nM | IC50 [4]: 68 ± 6 nM | GI50 [5]: 70 nM | melting point: 114 to 116 °C | IC50 [6]: 68 ± 6 nM

SMILES: CCn1c(SCc2nc(-c3ccc(Cl)cc3)no2)nc2ccccc2c1=O [Compound 9k, 2-((3-(4-Chlorophenyl)-1,2,4-oxadiazol-5-yl)methylthio)-3-ethylquinazolin-4(3H)-one]
viability at 96 h, 50 µM [1]: 93% | IC50 [2]: 32 ± 3 nM | IC50 [3]: 35 ± 3 nM | IC50 [4]: 34 ± 3 nM | GI50 [5]: 34 nM | IC50 [7]: 84 ± 6 nM | IC50 [8]: 62 ± 5 nM | melting point: 118 to 120 °C | IC50 [6]: 34 ± 3 nM

SMILES: C=CCn1c(SCc2nc(-c3ccc(Cl)cc3)no2)nc2ccccc2c1=O [Compound 9n, 2-((3-(4-Chlorophenyl)-1,2,4-oxadiazol-5-yl)methylthio)-3-allylquinazolin-4(3H)-one]
viability at 96 h, 50 µM [1]: 91% | IC50 [2]: 43 ± 4 nM | IC50 [3]: 47 ± 4 nM | IC50 [4]: 45 ± 4 nM | GI50 [5]: 45 nM | melting point: 115 to 117 °C | IC50 [6]: 44 ± 4 nM

SMILES: C#Cc1cccc(Nc2ncnc3cc(OCCOC)c(OCCOC)cc23)c1 [Erlotinib, reference compound]
IC50 [2]: 30 ± 3 nM | IC50 [3]: 40 ± 3 nM | IC50 [4]: 30 ± 3 nM | GI50 [5]: 33 nM | IC50 [6]: 30 ± 3 nM
